Results reported in patent US10781184B2, “Substituted benzazinones as antibacterial compounds” (GlaxoSmithKline Intellectual Property Development Limited, priority 2015, dated 2020).
In brackets after ≈: the same amount, converted by molar mass.

Legend:
K. pneumoniae 1161486 = test: Minimum Inhibitory Concentration Assay (broth microdilution, CLSI); format: cell-based; settings: Klebsiella pneumoniae; strain 1161486, broth microdilution; read-out: K. pneumoniae 1161486 MIC
Outline: (§1)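 CLSI broth microdilution for aerobic bacteria; compounds serially diluted in the recommended broth over a final range of 0.125–128 mcg/mL, final DMSO below 1%. MIC read as the lowest concentration inhibiting visible growth.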

P. aeruginosa PA01 = test: as above; format: cell-based; settings: Pseudomonas aeruginosa; strain PA01, broth microdilution; read-out: P. aeruginosa PA01 MIC
Outline: as §1

E. coli 7623 = test: as above; format: cell-based; settings: Escherichia coli; strain 7623, broth microdilution; read-out: E. coli 7623 MIC
Outline: as §1

[1] = target: T1, Untagged Pseudomonas LpxC (Pseudomonas aeruginosa, UniProt P47205); test: P. aeruginosa Enzymatic Assay (LpxC deacetylase, RapidFire MS); format: biochemical
T1 construct: made in house; host or cells: E. coli
T1 sequence (P47205 1-303): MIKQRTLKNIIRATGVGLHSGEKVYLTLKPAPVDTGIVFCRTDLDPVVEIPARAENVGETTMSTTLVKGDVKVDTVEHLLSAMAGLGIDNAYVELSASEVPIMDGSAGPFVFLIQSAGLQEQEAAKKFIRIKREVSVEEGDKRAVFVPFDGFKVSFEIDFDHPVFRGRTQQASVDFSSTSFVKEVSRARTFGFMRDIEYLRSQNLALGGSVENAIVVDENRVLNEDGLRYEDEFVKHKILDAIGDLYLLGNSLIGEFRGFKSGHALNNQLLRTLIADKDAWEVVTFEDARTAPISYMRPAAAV
Text: P. aeruginosa Enzymatic Assay
Untagged Pseudomonas LpxC was expressed in E. coli from Psuedomonas aeruginosa PAO1 and purified from Q-Sepharose 1 and Q-Sepharose 2 columns. UDP-3-O—(R-3-hydroxymyristoyl)-N-Acetylglucosamine Substrate was obtained through a custom synthesis from Alberta Innovates Technology Futures.
Untagged Pseudomonas LpxC is a deacetylase, which can remove an acetyl-group from UDP-3-O—(R-3-hydroxymyristoyl)-N-Acetylglucosamine to result in a product that is 42 Daltons less than the original acetylated substrate. Direct detection of the deactylated product and acetylated substrate is accomplished through an Agilent RapidFire v. 3.4/Sciex 4000 Q-Trap RF-MS instrument.
Following a 30 minute incubation, 20 μL of 2× substrate [7.680 buffer+5 uL of UDP-3-O—(R-3-hydroxymyristoyl)-N-Acetylglucosamine (at 10 mM Stock)] was added and incubated for 25 minutes. 10 uL of 1N HCl was added to quench the reaction. The plate was loaded onto the Agilent RapidFire v. 3.4/Sciex 4000 Q-Trap RF-MS instrument for analysis, using a C4 SPE cartridge and 2 mM ammonium acetate in 100 v/v water as the aqueous eluent and 5 mM ammonium acetate in […] as the organic eluent. For dose response experiments, % conversion were determined from the substrate and product analytes and normalized data were fit by ABASE/XC50 using the equation y=a+(b−a)/(1+(10^x/10^c)^d), where a is the minimum % activity, b is the maximum % activity, c is the pIC50, and d is the Hill slope. ^1Langsdorf, Erik F. et al. Screening for Antibacterial Inhibitors of the UDP-3-O—(R-3-Hydroxymyristoyl)-N-Acetylglucosamine Deacetylase (LpxC) Using a High-Throughput Mass

Untagged E. coli LpxC = target: T2, Untagged E. coli LpxC (Escherichia coli, UniProt P0A725); test: E. coli Enzyme Assay (LpxC deacetylase, RapidFire MS); format: biochemical; settings: read-out: E. coli plC50 (converted)
T2 construct: Untagged E. Coli LpxC 1-300 was expressed in E. Coli; made in house; host or cells: E. coli
T2 sequence (P0A725 1-300): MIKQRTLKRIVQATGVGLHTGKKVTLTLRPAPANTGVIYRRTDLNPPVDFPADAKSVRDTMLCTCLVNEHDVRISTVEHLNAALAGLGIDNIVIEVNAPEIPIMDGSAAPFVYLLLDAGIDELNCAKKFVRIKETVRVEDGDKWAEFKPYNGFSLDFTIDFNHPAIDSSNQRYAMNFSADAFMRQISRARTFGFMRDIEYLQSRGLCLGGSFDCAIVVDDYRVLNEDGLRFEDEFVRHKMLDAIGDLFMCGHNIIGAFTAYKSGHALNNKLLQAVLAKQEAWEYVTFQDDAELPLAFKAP
Text: Untagged E. Coli LpxC 1-300 was expressed in E. Coli and purified with NiNTA Agarose, Superdex 200 and Mono Q columns. UDP-3-O—(R-3-hydroxymyristoyl)-N-Acetylglucosamine Substrate was obtained through a custom synthesis from Alberta Innovates Technology Futures. Method Untagged E. coli LpxC is a deacetylase, which can remove an acetyl-group from UDP-3-O—(R-3-hydroxymyristoyl)-N-Acetylglucosamine (m/z 832.1-385) to result in a product (m/z 790.3→385) that is 42 Daltons less than the original acetylated substrate. Direct detection of the deacetylated product and acetylated substrate was accomplished through an Agilent RapidFire v. 3.4/Sciex 4000 Q-Trap RF-MS instrument. […] Following a 30 minute preincubation, 20 μL of 2× substrate [2 μM final concentration; 39.984 mL buffer+16 μL of UDP-3-O—(R-3-hydroxymyristoyl)-N-Acetylglucosamine (at 10 mM Stock)] was added and incubated for 25 minutes. The reaction was quenched by the addition of 10 μL of 1N HCl. The plate was loaded onto the Agilent RapidFire v. 3.4/Sciex 4000 Q-Trap RF-MS instrument for analysis [C4 SPE cartridge, 2 mM ammonium acetate in 100 v/v water as the aqueous eluent and 5 mM ammonium acetate in 25% v/v/25% v/v/50% v/v acetonitrile/acetone/water as the organic eluent]. For dose response experiments % conversion were determined from the substrate and product extracted ion chromatogram (XIC) areas and normalized to the assay high and low controls. Normalized data were fit by ActivityBase XE using the equation y=a+(b−a)/(1+(10^x/10^c)^d), where a is the minimum % activity, b is the maximum % activity, c is the pIC50, and d is the Hill slope. ^1Langsdorf, Erik F. et al. Screening for Antibacterial Inhibitors of the UDP-3-O—(R-3-Hydroxymyristoyl)-N-Acetylglucosamine Deacetylase (LpxC) Using a High-Throughput Mass Spectroscopy Assay. See, J. Biomol. Screen. 2010, 15, 52-61. Minimum Inhibitory Concentration Assay

| MIC (K. pneumoniae 1161486) [µg/mL] | MIC (P. aeruginosa PA01) [µg/mL] | MIC (E. coli 7623) [µg/mL] | IC50 [1] [nM] | SMILES | IC50 (Untagged E. coli LpxC) [nM] |
| --- | --- | --- | --- | --- | --- |
| 1 (≈ 2.23 µM) | 16 (≈ 35.8 µM) | 0.25 (≈ 0.559 µM) | 1 | Cc1ccc(-c2cc(F)c3c(=O)n(CC[C@](C)(C(=O)NO)S(C)(=O)=O)cnc3c2)cc1 [Example 17, (2R)-4-[5-fluoro-7-(4-methylphenyl)-4-oxo-3,4-dihydroquinazolin-3-yl]-N-hydroxy-2-methanesulfonyl-2-methylbutanamide] |  |
| 0.063 (≈ 0.13 µM) | 0.25 (≈ 0.517 µM) | 0.06 (≈ 0.124 µM) | 1 | C[C@@](CCn1ccc2cc(-c3ccc(CNC4CC4)cc3)ccc2c1=O)(C(=O)NO)S(C)(=O)=O [Example 75, (2R)-4-(6-{4-[(cyclopropylamino)methyl]phenyl}-1-oxo-1,2-dihydroisoquinolin-2-yl)-N-hydroxy-2-methanesulfonyl-2-methylbutanamide] |  |
| 0.5 (≈ 1.15 µM) | 4 (≈ 9.21 µM) | 0.5 (≈ 1.15 µM) | 1 | C[C@@](CCN1CCc2cc(-c3ccccc3F)ccc2C1=O)(C(=O)NO)S(C)(=O)=O [Example 91, (2R)-4-[6-(2-fluorophenyl)-1-oxo-1,2,3,4-tetrahydroisoquinolin-2-yl]-N-hydroxy-2-methanesulfonyl-2-methylbutanamide] |  |

| SMILES | MIC (K. pneumoniae 1161486) [µg/mL] | MIC (P. aeruginosa PA01) [µg/mL] | MIC (E. coli 7623) [µg/mL] | IC50 [1] [nM] | IC50 (Untagged E. coli LpxC) [nM] |
| --- | --- | --- | --- | --- | --- |
| CCOCCNCc1ccc(-c2ccc3c(=O)n(CC[C@](C)(C(=O)NO)S(C)(=O)=O)ccc3c2)c(F)c1 [Example 72, (2R)-4-[6-(4-{[(2-ethoxyethyl)amino]methyl}-2-fluorophenyl)-1-oxo-1,2-dihydroisoquinolin-2-yl]-N-hydroxy-2-methanesulfonyl-2-methylbutanamide] | 0.25 (≈ 0.468 µM) | 1 (≈ 1.87 µM) | 0.125 (≈ 0.234 µM) |  | 1 |
